Measured values published in patent US20230089073A1 (Carmot Therapeutics, Inc., priority 2021, published 2023).

Biological target: T1, human GLP-1 receptor (Homo sapiens, UniProt P43220)
T1 construct: expressed in transfected cells
Test: GLP-1R cAMP Assay
Format: cell-based
Settings: cAMP accumulation in CHO cells stably overexpressing the human GLP-1 receptor; 30 min treatment; HitHunter cAMP kit; read-out: EC50
How it was run: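 Luminescent enzyme-complementation detection of cAMP, read after cell lysis and overnight incubation, with dose-response curve fitting. Stimulation lasted 30 min, using 20-point triplicate dosing on CHO cells (10,000 per well) stably overexpressing human GLP-1R.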

T1 sequence (P43220 24-463): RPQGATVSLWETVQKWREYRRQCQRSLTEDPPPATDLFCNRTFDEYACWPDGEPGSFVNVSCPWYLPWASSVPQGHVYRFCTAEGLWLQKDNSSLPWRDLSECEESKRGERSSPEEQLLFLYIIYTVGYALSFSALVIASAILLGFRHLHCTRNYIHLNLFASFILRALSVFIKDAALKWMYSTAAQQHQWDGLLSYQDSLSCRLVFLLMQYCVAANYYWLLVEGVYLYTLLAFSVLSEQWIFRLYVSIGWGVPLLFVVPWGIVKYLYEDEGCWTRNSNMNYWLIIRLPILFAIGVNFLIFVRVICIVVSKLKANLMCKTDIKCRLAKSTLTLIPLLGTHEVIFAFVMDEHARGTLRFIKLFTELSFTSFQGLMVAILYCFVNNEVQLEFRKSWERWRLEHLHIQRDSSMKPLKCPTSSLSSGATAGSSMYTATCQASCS

An EC50 of over 500 nM was found for N#Cc1cc(Cl)ccc1OCc1cccc(OC2CCN(Cc3nc4ccc(C(=O)O)cc4n3Cc3ccno3)CC2)n1 [Compound 253, 2-{[4-({6-[(4-chloro-2-cyanophenoxy)methyl]pyridin-2-yl}oxy)piperidin-1-yl]methyl}-1-[(1,2-oxazol-5-yl)methyl]-1H-1,3-benzodiazole-6-carboxylic acid] in this work.

An EC50 of under 50 nM was found for O=C(O)c1ccc2nc(CN3CCC(Oc4ccnc(COc5ccc(Cl)cc5F)c4)CC3)n(CC3(O)CC3)c2c1 [Compound 345] in this work.

An EC50 of under 50 nM was found for O=C(O)c1ccc2nc(CN3CCC(Oc4ccnc(COc5ccc(Cl)cc5CO)c4)CC3)n(CC3CCO3)c2c1 (stereo not shown) [Compound 292, 2-({4-[(2-{[4-chloro-2-(hydroxymethyl)phenoxy]methyl}pyridin-4-yl)oxy]piperidin-1-yl}methyl)-1-[(oxetan-2-yl)methyl]-1H-1,3-benzodiazole-6-carboxylic acid] in this work.

An EC50 of under 50 nM was found for C[C@H]1C[C@H](Oc2cccc(COc3ccc(Cl)cc3Cl)c2)CCN1Cc1nc2ccc(C(=O)O)cc2n1C[C@@H]1CCO1 [Compound 254, 2-{[(2S,4R)-4-{3-[(2,4-dichlorophenoxy)methyl]phenoxy}-2-methylpiperidin-1-yl]methyl}-1-{[(2S)-oxetan-2-yl]methyl}-1H-1,3-benzodiazole-6-carboxylic acid] in this work.

An EC50 of under 50 nM was found for O=C(O)c1ccc2nc(CN3CCC(Oc4ccnc(COc5ccc(F)cc5Cl)n4)CC3)n(C[C@H]3CCN3C(=O)c3ccon3)c2c1 [Example 483, (R)-2-((4-((2-((2-Chloro-4-fluorophenoxy)methyl)pyrimidin-4-yl)oxy)piperidin-1-yl)methyl)-1-((1-(isoxazole-3-carbonyl)azetidin-2-yl)methyl)-1H-benzo[d]imidazole-6-carboxylic acid] in this work.

An EC50 of under 50 nM was found for CCn1cncc1Cn1c(CN2CCC(Oc3cnc(COc4ccc(Cl)cc4Cl)o3)CC2)nc2ccc(C(=O)O)cc21 [Compound 214, 2-{[4-({2-[(2,4-dichlorophenoxy)methyl]-1,3-oxazol-5-yl}oxy)piperidin-1-yl]methyl}-1-[(1-ethyl-1H-imidazol-5-yl)methyl]-1H-1,3-benzodiazole-6-carboxylic acid] in this work.

An EC50 of under 50 nM was found for N#Cc1ccc(OCc2nccc(OC3CCN(Cc4nc5ccc(C(=O)O)cc5n4C[C@@H]4CCO4)CC3)n2)c(F)c1 [Example 262, (S)-2-((4-((2-((4-Cyano-2-fluorophenoxy)methyl)pyrimidin-4-yl)oxy)piperidin-1-yl)methyl)-1-(oxetan-2-ylmethyl)-1H-benzo[d]imidazole-6-carboxylic acid] in this work.

An EC50 of 50 to 500 nM was found for O=C(O)c1ccc2nc(CN3CCN(C(=O)c4ccc(Cc5ccc(Cl)cc5Cl)o4)CC3)n(C[C@@H]3CCO3)c2c1 [Example 59, (S)-2-((4-(5-(2,4-Dichlorobenzyl)furan-2-carbonyl)piperazin-1-yl)methyl)-1-(oxetan-2-ylmethyl)-1H-benzo[d]imidazole-6-carboxylic acid] in this work.

An EC50 of 50 to 500 nM was found for CCn1cncc1Cn1c(CN2CCN(C(=O)c3cccc(N(C)c4ccc(C)cc4Cl)c3)CC2)nc2ccc(C(=O)O)cc21 [Compound 54, 2-[(4-{3-[(2-chloro-4-methylphenyl)(methyl)amino]benzoyl}piperazin-1-yl)methyl]-1-[(1-ethyl-1H-imidazol-5-yl)methyl]-1H-1,3-benzodiazole-6-carboxylic acid] in this work.

An EC50 of under 50 nM was found for CCn1cncc1Cn1c(CN2CCC(Cc3cccc(COc4ccc(Cl)cc4Cl)c3)CC2)nc2ccc(C(=O)O)cc21 [Compound 104, 2-{[4-({3-[(2,4-dichlorophenoxy)methyl]phenyl}methyl)piperidin-1-yl]methyl}-1-[(1-ethyl-1H-imidazol-5-yl)methyl]-1H-1,3-benzodiazole-6-carboxylic acid] in this work.

An EC50 of under 50 nM was found for O=C(O)c1cc(F)c2nc(CN3CCC(Oc4ccnc(COc5cc(F)c(F)cc5F)n4)CC3)n(C[C@@H]3CCO3)c2c1 [Compound 494, 4-fluoro-1-{[(2S)-oxetan-2-yl]methyl}-2-{[4-({2-[(2,4,5-trifluorophenoxy)methyl]pyrimidin-4-yl}oxy)piperidin-1-yl]methyl}-1H-1,3-benzodiazole-6-carboxylic acid] in this work.

An EC50 of under 50 nM was found for O=C(O)c1ccc2nc(CN3CCC(Oc4cccc(COc5ccc(Cl)cc5F)n4)CC3)n(C[C@@H]3CCO3)c2c1 [Compound 249, 2-{[4-({6-[(4-chloro-2-fluorophenoxy)methyl]pyridin-2-yl}oxy)piperidin-1-yl]methyl}-1-{[(2S)-oxetan-2-yl]methyl}-1H-1,3-benzodiazole-6-carboxylic acid] in this work.

An EC50 of under 50 nM was found for Cc1ccc(OCc2cccc(CC3CCN(Cc4nc5ccc(C(=O)O)cc5n4C[C@@H]4CCO4)CC3)n2)c(Cl)c1 [Compound 118, 2-{[4-({6-[(2-chloro-4-methylphenoxy)methyl]pyridin-2-yl}methyl)piperidin-1-yl]methyl}-1-{[(2S)-oxetan-2-yl]methyl}-1H-1,3-benzodiazole-6-carboxylic acid] in this work.

An EC50 of under 50 nM was found for CCN(c1cccc(C(=O)N2CCN(Cc3nc4ccc(C(=O)O)cc4n3C[C@@H]3CCO3)CC2)c1)c1ccc(C)cc1Cl [Compound 52, 2-[(4-{3-[(2-chloro-4-methylphenyl)(ethyl)amino]benzoyl}piperazin-1-yl)methyl]-1-{[(2S)-oxetan-2-yl]methyl}-1H-1,3-benzodiazole-6-carboxylic acid] in this work.

An EC50 of under 50 nM was found for O=C(O)c1ccc2nc(CN3CCC(Oc4cccc(COc5ccc(Cl)cc5F)n4)CC3)n(Cc3cnco3)c2c1 [Compound 269, 2-{[4-({6-[(4-chloro-2-fluorophenoxy)methyl]pyridin-2-yl}oxy)piperidin-1-yl]methyl}-1-[(1,3-oxazol-5-yl)methyl]-1H-1,3-benzodiazole-6-carboxylic acid] in this work.

An EC50 of over 500 nM was found for O=C(O)c1ccc2nc(CN3CCN(C(=O)c4ncc(COc5ccc(Cl)cc5Cl)o4)CC3)n(C[C@@H]3CCO3)c2c1 [Compound 113, 2-[(4-{5-[(2,4-dichlorophenoxy)methyl]-1,3-oxazole-2-carbonyl}piperazin-1-yl)methyl]-1-{[(2S)-oxetan-2-yl]methyl}-1H-1,3-benzodiazole-6-carboxylic acid] in this work.

An EC50 of under 50 nM was found for C[C@H]1C[C@H](Oc2cccc(COc3ccc(Cl)cc3F)n2)CCN1Cc1nc2ccc(C(=O)O)cc2n1C[C@@H]1CCO1 [Compound 290, 2-{[(2S,4R)-4-({6-[(4-chloro-2-fluorophenoxy)methyl]pyridin-2-yl}oxy)-2-methylpiperidin-1-yl]methyl}-1-{[(2S)-oxetan-2-yl]methyl}-1H-1,3-benzodiazole-6-carboxylic acid] in this work.

An EC50 of 50 to 500 nM was found for Cc1ccc(N(C)c2cccc(OC3CCN(Cc4nc5ccc(C(=O)O)cc5n4C[C@@H]4CCO4)CC3)c2)c(Cl)c1 [Example 111, (S)-2-((4-(3-((2-Chloro-4-methylphenyl)(methyl)amino)phenoxy)piperidin-1-yl)methyl)-1-(oxetan-2-ylmethyl)-1H-benzo[d]imidazole-6-carboxylic acid] in this work.

An EC50 of under 50 nM was found for C[C@H]1C[C@@H](Oc2ccnc(COc3ccc(C(F)(F)F)cc3F)n2)CCN1Cc1nc2ccc(C(=O)O)nc2n1C[C@@H]1CCO1 [Compound 377] in this work.

An EC50 of under 50 nM was found for CCn1cncc1Cn1c(CN2CCC(C(O)c3cccc(COc4ccc(C)cc4Cl)c3)CC2)nc2ccc(C(=O)O)cc21 (racemic) [Example 130, 2-((4-((3-((2-Chloro-4-methylphenoxy)methyl)phenyl)(hydroxy)methyl)piperidin-1-yl)methyl)-1-((1-ethyl-1H-imidazol-5-yl)methyl)-1H-benzo[d]imidazole-6-carboxylic acid] in this work.

An EC50 of under 50 nM was found for N#Cc1cc(F)c(OCc2nccc(OC3CCN(Cc4nc5ccc(C(=O)O)cc5n4C[C@@H]4CCO4)CC3)n2)cc1F [Example 498, (S)-2-((4-((2-((4-Cyano-2,5-difluorophenoxy)methyl)pyrimidin-4-yl)oxy)piperidin-1-yl)methyl)-1-(oxetan-2-ylmethyl)-1H-benzo[d]imidazole-6-carboxylic acid] in this work.

An EC50 of under 50 nM was found for O=C(O)c1ccc2nc(CN3CCC(Oc4ccnc(COc5ccc(C(F)(F)F)cc5F)c4)CC3)n(C[C@@H]3CCO3)c2c1 [Compound 356] in this work.

An EC50 of under 50 nM was found for O=C(O)c1ccc2nc(CN3CCC(Oc4ccnc(COc5ccc(C6CC6)cc5F)n4)CC3)n(C[C@@H]3CCO3)c2c1 [Compound 475, 2-{[4-({2-[(4-cyclopropyl-2-fluorophenoxy)methyl]pyrimidin-4-yl}oxy)piperidin-1-yl]methyl}-1-{[(2S)-oxetan-2-yl]methyl}-1H-1,3-benzodiazole-6-carboxylic acid] in this work.

An EC50 of under 50 nM was found for C[C@H]1C[C@@H](Oc2ccnc(COc3ccc(C#N)cc3F)n2)CCN1Cc1nc2ccc(C(=O)O)nc2n1C[C@@H]1CCO1 [Compound 375] in this work.

An EC50 of under 50 nM was found for CCn1cncc1Cn1c(CN2CCC(Oc3cccc(COc4ccc(Cl)cc4Cl)n3)CC2)nc2ccc(C(=O)O)cc21 [Compound 199, 2-{[4-({6-[(2,4-dichlorophenoxy)methyl]pyridin-2-yl}oxy)piperidin-1-yl]methyl}-1-[(1-ethyl-1H-imidazol-5-yl)methyl]-1H-1,3-benzodiazole-6-carboxylic acid] in this work.

An EC50 of 50 to 500 nM was found for O=C(O)c1ccc2nc(CN3CCN(C(=O)c4cnc(COc5ccc(Cl)cc5Cl)o4)CC3)n(C[C@@H]3CCO3)c2c1 [Example 102, (S)-2-((4-(2-((2,4-Dichlorophenoxy)methyl)oxazole-5-carbonyl)piperazin-1-yl)methyl)-1-(oxetan-2-ylmethyl)-1H-benzo[d]imidazole-6-carboxylic acid] in this work.

An EC50 of 50 to 500 nM was found for CCn1cncc1Cn1c(CN2CCC(Oc3cccc(COc4ncc(Cl)cc4F)c3)CC2)nc2ccc(C(=O)O)cc21 [Compound 294] in this work.

An EC50 of under 50 nM was found for C[C@H]1C[C@@H](Oc2nc(COc3ccc(C#N)cc3F)ncc2F)CCN1Cc1nc2ccc(C(=O)O)cc2n1C[C@@H]1CCO1 [Compound 493, 2-{[(2S,4S)-4-({2-[(4-cyano-2-fluorophenoxy)methyl]-5-fluoropyrimidin-4-yl}oxy)-2-methylpiperidin-1-yl]methyl}-1-{[(2S)-oxetan-2-yl]methyl}-1H-1,3-benzodiazole-6-carboxylic acid] in this work.
